# Values quoted from earlier work, collected in patent US12083128B2, “Use of medications with neuroprotective properties to prevent or reduce the risk of ischemia-reperfusion injury in a subject” (priority 2015, dated 2024).
# Where two headings read alike, the source gives them in different places.
# Legend:
# [1] = tested on: optic nerve blood flow; conditions: animal models; cited from earlier work
# [2] = tested on: retinal gangion cells; conditions: in vivo, animals; cited from earlier work
# [3] = tested on: retinal gangion cells; conditions: in vitro; cited from earlier work
# [4] = tested on: endothelin 1 induced ischemic retinal injury; conditions: daily topical administration, animals; cited from earlier work
# [5] = intravitreal injections for AMD, 49 eyes followed for 12 months; cited from earlier work
Molecule,optic nerve blood flow [1],protection of retinal ganglion cells from apoptosis [2],protection of retinal ganglion cells from apoptosis [3],RNFL thickness in treated eyes [4],protection against endothelin 1 induced ischemic retinal injury [4],RNFL thinning [5]
CC(C)OC(=O)CCC/C=C\C[C@@H]1[C@@H](/C=C/C(F)(F)COc2ccccc2)[C@H](O)C[C@@H]1O [tafluprost],improved optic nerve blood flow,protects retinal gangion cells from apoptosis,protects retinal gangion cells from apoptosis,thicker in treated eyes,protective,–
Ranibizumab,–,–,–,–,–,caused significant RNFL thinning
